Like-named read-outs stand apart in the source and are kept apart here.
Key:
Assay type in all cases: cell-based
NCI-H226 cells [1] = experiment: Cell proliferation and viability assay (CPA) in NCI-H226 cells; conditions: up to 6 d; for IC50: Homo sapiens, 144 h, read-out: CPA NCI-H226 IC50 Ave
Method: Compound potency and efficacy in inhibiting cell proliferation and viability was assessed in multiple cell lines. For example, NCI-H226 cells (ATCC #CRL-5826) were seeded at 2000 cells in 200 μL medium per well of a 96-well plate (Corning #3610) and incubated at 37° C. for 24 hours, then treated with serial diluted compounds for up to 6 d. Viable cells were measured by CellTiter-Glo 2.0 Cell Viability Assay (Promega #G9243), and the luminescence signal was read using an EnSight Multimode plate reader (PerkinElmer, model 9MLDHH34000000, integration time 100 ms) with Kaleido 3.0. software. For data analysis, dose-dependent curves were plotted as “inhibition” (% of DMSO-treated control wells), and were fitted by four-parametric model in GraphPad Prism to obtain IC50 values. […]

H2052 cells = experiment: Cell proliferation and viability assay (CPA) in H2052 cells; conditions: for IC50: Homo sapiens, NCI-H2052, read-out: CPA H2052 IC50 Ave
Method: (§1) Compound potency and efficacy in inhibiting cell proliferation and viability was assessed in multiple cell lines. For example, NCI-H226 cells (ATCC #CRL-5826) were seeded at 2000 cells in 200 μL medium per well of a 96-well plate (Corning #3610) and incubated at 37° C. for 24 hours, then treated with serial diluted compounds for up to 6 d. Viable cells were measured by CellTiter-Glo 2.0 Cell Viability Assay (Promega #G9243), and the luminescence signal was read using an EnSight Multimode plate reader (PerkinElmer, model 9MLDHH34000000, integration time 100 ms) with Kaleido 3.0. software. For data analysis, dose-dependent curves were plotted as “inhibition” (% of DMSO-treated control wells), and were fitted by four-parametric model in GraphPad Prism to obtain IC50 values.
(§2) Alternatively, cells were plated at 2000 cells in 200 μL medium per well of a 96-well plate (Corning #3585) overnight, treated with compound for 7 days, cell density images taken by Incycte S3 live cell analysis instrument (Sartorius) every 24 hours at the same time. Images were analyzed by Incucyte's AI-driven software to get C “% confluence” for every image. Dose-dependent curves were plotted as “% inhibition” (% o of DMSO-treated control wells) and were fitted by four-parametric model in GraphPad Prism to obtain IC50 values.

TEAD1 [2] = experiment: MCF-7 TEAD1-luciferase reporter assay (MCF7-TEAD-Luc); conditions: MCF7 cells, overnight; for IC50: Homo sapiens; for TEAD1-Luc MCF7: Max Inhibition: % of DMSO-treated control
Procedure, shortened: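 MCF7 cells with a TEAD luciferase reporter were seeded at 10,000 per well, grown 24 hours at 37° C, then treated overnight with serially diluted compound. Luciferase signal was normalized as % inhibition relative to DMSO controls, and IC50 came from a four-parameter fit.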

TEAD2 = TEAD2 (Homo sapiens, UniProt Q15562); experiment: Palmitoylation assay, TEAD2 (HEK293T cells); parameters: unspecified tag; expressed in transfected cells; host or cells: HEK293T; conditions: 3 um compound, 24 hours
Sequence of TEAD2 (Q15562 whole entry): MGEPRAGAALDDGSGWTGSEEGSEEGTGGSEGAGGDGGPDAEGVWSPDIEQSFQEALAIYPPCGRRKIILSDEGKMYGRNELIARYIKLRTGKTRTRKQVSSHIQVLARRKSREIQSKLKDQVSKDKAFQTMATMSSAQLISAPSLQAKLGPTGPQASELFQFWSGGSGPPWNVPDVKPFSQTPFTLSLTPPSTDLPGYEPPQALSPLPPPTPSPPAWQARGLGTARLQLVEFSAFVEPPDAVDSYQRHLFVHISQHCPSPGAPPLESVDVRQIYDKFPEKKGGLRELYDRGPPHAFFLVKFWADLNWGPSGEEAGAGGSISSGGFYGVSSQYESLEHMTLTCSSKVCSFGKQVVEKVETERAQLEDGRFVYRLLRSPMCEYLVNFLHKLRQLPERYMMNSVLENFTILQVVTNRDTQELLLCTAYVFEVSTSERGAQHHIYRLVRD
Method: (§3) Tagged TEAD constructs were cloned in pTriEx-6 (Novagen #71559) and transiently transfected into HEK293T cells for 24 hours. Then cells were treated with compounds for 24 hours, or treated with compounds plus 25 μM alkyne palmitic acid (for palmitoylation assay), and cell pellets were collected. Cells were lysed in lysis Buffer (100 mM Tris-HCl, 150 mM NaCl, 1% Triton, 5 mg/mL protease inhibitor cocktail), centrifuged for 10 min at 15000 g, TEAD proteins were pulled down and subjected to click-chemistry with TAMRA azide (Click Chemistry Tools #AZ109) to label compound-modified protein. Protein bands were separated by SDS-gel electrophoresis, target bands at expected molecular size were visualized using BioRad ChemiDoc Imaging system, band intensities were quantified by Image Studio.

TEAD1 [3] = experiment: Palmitoylation assay, TEAD1 (HEK293T cells); conditions: 3 um compound, 24 hours
Method: as §3

TEAD3 = TEAD3 (Homo sapiens, UniProt Q99594); experiment: Palmitoylation assay, TEAD3 (HEK293T cells); parameters: unspecified tag; expressed in transfected cells; host or cells: HEK293T; conditions: 3 um compound, 24 hours
Sequence of TEAD3 (Q99594 whole entry): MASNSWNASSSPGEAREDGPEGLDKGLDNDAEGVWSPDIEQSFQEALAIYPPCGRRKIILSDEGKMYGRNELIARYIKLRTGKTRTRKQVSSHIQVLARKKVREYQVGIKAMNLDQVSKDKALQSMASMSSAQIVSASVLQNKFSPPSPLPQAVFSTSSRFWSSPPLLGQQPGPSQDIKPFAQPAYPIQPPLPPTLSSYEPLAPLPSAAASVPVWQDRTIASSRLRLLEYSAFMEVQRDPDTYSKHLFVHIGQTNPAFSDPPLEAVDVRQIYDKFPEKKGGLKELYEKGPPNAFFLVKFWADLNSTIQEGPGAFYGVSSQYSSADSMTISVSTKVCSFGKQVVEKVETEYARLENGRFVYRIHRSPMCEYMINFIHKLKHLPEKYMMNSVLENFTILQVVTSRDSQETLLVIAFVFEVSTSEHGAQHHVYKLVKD
Method: as §3

TEAD4 = TEAD4 (Homo sapiens, UniProt Q15561); experiment: Palmitoylation assay, TEAD4 (HEK293T cells); parameters: unspecified tag; expressed in transfected cells; host or cells: HEK293T; conditions: 3 um compound, 24 hours
Sequence of TEAD4 (Q15561 whole entry): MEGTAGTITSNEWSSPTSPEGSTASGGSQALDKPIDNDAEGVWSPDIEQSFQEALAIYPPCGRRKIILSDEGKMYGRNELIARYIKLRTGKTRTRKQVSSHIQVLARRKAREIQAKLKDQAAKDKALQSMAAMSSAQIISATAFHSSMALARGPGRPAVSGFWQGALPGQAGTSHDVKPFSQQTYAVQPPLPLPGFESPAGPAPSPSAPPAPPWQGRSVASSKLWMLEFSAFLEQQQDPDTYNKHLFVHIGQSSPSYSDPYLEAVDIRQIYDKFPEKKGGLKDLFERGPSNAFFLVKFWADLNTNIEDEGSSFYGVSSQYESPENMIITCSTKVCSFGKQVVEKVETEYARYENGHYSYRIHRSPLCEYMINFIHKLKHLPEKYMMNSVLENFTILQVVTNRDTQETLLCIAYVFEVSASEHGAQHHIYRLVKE
Method: as §3

NCI-H226 cells [4] = experiment: Cell proliferation and viability assay (CPA) in NCI-H226 cells; conditions: up to 6 d
Method: as §1, §2

## C=CC(=O)N1CC[C@](C)(C#Cc2ccc(C(F)(F)F)cc2)C1 (single isomer, unassigned) [Example 60, 1-[(3R*)-3-methyl-3-{2-[4-(trifluoromethyl)phenyl]ethynyl}pyrrolidin-1-yl]prop-2-en-1-one]
NCI-H226 cells [1]
  IC50: ≤ 100 nM
  CPA NCI-H226 Max Inh Ave: A (A ≥ 75%)
H2052 cells
  CPA H2052 Max Inh Ave: A (A ≥ 75%)
  IC50: ≤ 100 nM
TEAD1 [2]
  IC50: 10 to 100 nM
  TEAD1-Luc MCF7: Max Inhibition: A (A ≥ 75%)

## C=CC(=O)N1CC[C@@](C)(C#Cc2ccc(C(F)(F)F)cc2)C1 (single isomer, unassigned) [Example 61, 1-[(3S*)-3-methyl-3-{2-[4-(trifluoromethyl)phenyl]ethynyl}pyrrolidin-1-yl]prop-2-en-1-one]
NCI-H226 cells [1]
  IC50: ≤ 100 nM
  CPA NCI-H226 Max Inh Ave: B (75% > B ≥ 50%)
H2052 cells
  CPA H2052 Max Inh Ave: A (A ≥ 75%)
  IC50: ≤ 100 nM
TEAD1 [2]
  IC50: 10 to 100 nM
  TEAD1-Luc MCF7: Max Inhibition: A (A ≥ 75%)

## C=CC(=O)N1CC[C@@H](C#Cc2ccc(C(F)(F)F)cc2)C1 (single isomer, unassigned) [Example 67, (S*)-1-(3-((4-(trifluoromethyl)phenyl)ethynyl)pyrrolidin-1-yl)prop-2-en-1-one]
NCI-H226 cells [1]
  IC50: ≤ 100 nM
  CPA NCI-H226 Max Inh Ave: A (A ≥ 75%)
H2052 cells
  CPA H2052 Max Inh Ave: A (A ≥ 75%)
  IC50: ≤ 100 nM
TEAD1 [2]
  IC50: ≤ 10 nM
  TEAD1-Luc MCF7: Max Inhibition: A (A ≥ 75%)

## C=CC(=O)N1C[C@@H](C)[C@H](/C=C/c2ccc(C(F)(F)F)cc2)C1 (stereo in doubt) [Example 39, 1-((3S*,4S*)-3-methyl-4-((E)-4-(trifluoromethyl)styryl)pyrrolidin-1-yl)prop-2-en-1-one]
TEAD2
  TEAD2 Inh (palmitoylation): 32%
TEAD1 [3]
  TEAD1 Inh (palmitoylation): 89%
TEAD3
  TEAD3 Inh (palmitoylation): 90%
TEAD1 [2]
  IC50: 10 to 100 nM
  TEAD1-Luc MCF7: Max Inhibition: A (A ≥ 75%)
TEAD4
  TEAD4 Inh (palmitoylation): 18%

## C=CC(=O)N1CC(C/C=C\c2cc(C(F)(F)F)on2)C1 [Example 1, 1-{3-[(2Z)-3-[5-(trifluoromethyl)-1,2-oxazol-3-yl]prop-2-en-1-yl]azetidin-1-yl}prop-2-en-1-one]
NCI-H226 cells [1]
  IC50: 100 to 500 nM
  CPA NCI-H226 Max Inh Ave: B (75% > B ≥ 50%)
H2052 cells
  CPA H2052 Max Inh Ave: B (75% > B ≥ 50%)
  IC50: ≤ 100 nM
TEAD1 [2]
  IC50: ≤ 10 nM
  TEAD1-Luc MCF7: Max Inhibition: A (A ≥ 75%)

## C=CC(=O)N1CC(/C=C/c2ccc(C(F)(F)F)cn2)C1 [Example 11, 1-(3-(2-(5-(trifluoromethyl)pyridin-2-yl)vinyl)azetidin-1-yl)prop-2-en-1-one]
NCI-H226 cells [1]
  IC50: 100 to 500 nM
  CPA NCI-H226 Max Inh Ave: A (A ≥ 75%)
H2052 cells
  CPA H2052 Max Inh Ave: A (A ≥ 75%)
  IC50: ≤ 100 nM
TEAD1 [2]
  IC50: ≤ 10 nM
  TEAD1-Luc MCF7: Max Inhibition: A (A ≥ 75%)

## C=CC(=O)N1CC(/C=C/c2cnc(C(F)(F)F)s2)C1 [Example 13, 1-{3-[(E)-2-[2-(trifluoromethyl)-1,3-thiazol-5-yl]ethenyl]azetidin-1-yl}prop-2-en-1-one]
NCI-H226 cells [1]
  IC50: ≤ 100 nM
  CPA NCI-H226 Max Inh Ave: B (75% > B ≥ 50%)
H2052 cells
  CPA H2052 Max Inh Ave: B (75% > B ≥ 50%)
  IC50: ≤ 100 nM
TEAD1 [2]
  IC50: ≤ 10 nM
  TEAD1-Luc MCF7: Max Inhibition: A (A ≥ 75%)

## C=CC(=O)N1CC(/C=C/c2cc(C(F)(F)F)on2)C1 [Example 21, (E)-1-(3-(2-(5-(trifluoromethyl)isoxazol-3-yl)vinyl)azetidin-1-yl)prop-2-en-1-one]
TEAD2
  TEAD2 Inh (palmitoylation): 70%
NCI-H226 cells [1]
  IC50: 100 to 500 nM
  CPA NCI-H226 Max Inh Ave: A (A ≥ 75%)
TEAD1 [3]
  TEAD1 Inh (palmitoylation): 96%
H2052 cells
  CPA H2052 Max Inh Ave: B (75% > B ≥ 50%)
  IC50: ≤ 100 nM
TEAD3
  TEAD3 Inh (palmitoylation): 96%
TEAD1 [2]
  IC50: ≤ 10 nM
  TEAD1-Luc MCF7: Max Inhibition: A (A ≥ 75%)
TEAD4
  TEAD4 Inh (palmitoylation): 33%

## C=CC(=O)N1CC(C#N)(/C=C/c2cc(C(F)(F)F)on2)C1 [Example 34, 1-acryloyl-3-(2-(5-(trifluoromethyl)isoxazol-3-yl)vinyl)azetidine-3-carbonitrile]
NCI-H226 cells [1]
  IC50: 100 to 500 nM
  CPA NCI-H226 Max Inh Ave: A (A ≥ 75%)
H2052 cells
  CPA H2052 Max Inh Ave: A (A ≥ 75%)
  IC50: ≤ 100 nM
TEAD1 [2]
  IC50: 10 to 100 nM
  TEAD1-Luc MCF7: Max Inhibition: A (A ≥ 75%)

## C=CC(=O)N1CC(/C=C/c2ccc(C(F)(F)F)cc2)C(OC)C1 (stereo not shown) [Example 36, 1-(3-methoxy-4-(4-(trifluoromethyl)styryl)pyrrolidin-1-yl)prop-2-en-1-one]
NCI-H226 cells [1]
  IC50: 100 to 500 nM
  CPA NCI-H226 Max Inh Ave: B (75% > B ≥ 50%)
H2052 cells
  CPA H2052 Max Inh Ave: B (75% > B ≥ 50%)
  IC50: ≤ 100 nM
TEAD1 [2]
  IC50: 10 to 100 nM
  TEAD1-Luc MCF7: Max Inhibition: A (A ≥ 75%)

## C#Cc1cc(/C=C/C2CN(C(=O)C=C)C2)ccc1C(F)(F)F [Example 45, (E)-1-(3-(3-ethynyl-4-(trifluoromethyl)styryl)azetidin-1-yl)prop-2-en-1-one]
NCI-H226 cells [1]
  IC50: 100 to 500 nM
  CPA NCI-H226 Max Inh Ave: B (75% > B ≥ 50%)
H2052 cells
  CPA H2052 Max Inh Ave: B (75% > B ≥ 50%)
  IC50: 100 to 500 nM
TEAD1 [2]
  IC50: 10 to 100 nM
  TEAD1-Luc MCF7: Max Inhibition: A (A ≥ 75%)

## C=CC(=O)N1CC[C@H](C/C=C/c2ccc(C(F)(F)F)cc2)C1 [Example 85]
H2052 cells
  CPA H2052 Max Inh Ave: B (75% > B ≥ 50%)
  IC50: ≤ 100 nM
TEAD1 [2]
  IC50: ≤ 10 nM
  TEAD1-Luc MCF7: Max Inhibition: A (A ≥ 75%)
NCI-H226 cells [4]; Homo sapiens, 144 h, read-out: CPA NCI-H226 IC50 Ave
  IC50: 100 to 500 nM
NCI-H226 cells [4]
  CPA NCI-H226 Max Inh Ave: B (75% > B ≥ 50%)
